Like-named read-outs stand apart in the source and are kept apart here. Numbered stars: 1 amine (or outer) side, 2 acyl side, 3 side chain; on linkers, the order of the positions; unused ones are H or OH. Square brackets hold non-standard residues; d marks the D form. Peptide text beside a SMILES is read from it. * marks the point of attachment. X1 = CC(C)CN(CC(=O)[*:2])N[*:1]; X2 = N=C(N)NC/C=C/CN*
Assays:
[1] = Plasmatic half-life / degradation by plasmatic protease; type: in vitro ADME; conditions: plasma
Protocol: (§1) Multiple multi-Leu variants described in Table 1 were tested for their stability following incubation with DU145 cells, wherein their cellular stability and plasmatic half-life was measured.
Stabilisation strategy for multi-Leu variants was also assessed in presence of plasmatic protease. 8 variants protected at their N-terminal leucines were tested in order to establish their level of degradation since it is expected that N-terminal degradation will occur in absence of any modifications other than acetylation. Variants tested with azaβ3-leucine at each individual position and “click” bonds between the different leucines of the N-terminal part of the variants were protected against degradation (see FIG. 3 for modifications).

DU145 cells [2] = conditions: MTT; for Anti-proliferative activity in DU145 cells (in words): FIG. 1C, FIG. 7
Fig. 4 = assay: Fig. 4
Description: Table printed on a drawing sheet, Fig. 4
The patent's description of the figure: FIG. 4 illustrates plasmatic half-life curves measured for multi-Leu variants tested.
First reader's note: The table also serves as legend for the numbered curves of the adjacent plot; the unit (h) and ± errors stand in the cells, with decimal commas as printed.

furin = furin (Homo sapiens, UniProt P09958); assay: Inhibition constant (Ki) for furin; type: biochemical
PACE4 = molecular target: T1, PACE4 (Homo sapiens, UniProt P29122); assay: Inhibition constant (Ki) for PACE4; type: biochemical; conditions: for Ki: read-out: Ki for PACE4
T1 sequence (P29122 150-969): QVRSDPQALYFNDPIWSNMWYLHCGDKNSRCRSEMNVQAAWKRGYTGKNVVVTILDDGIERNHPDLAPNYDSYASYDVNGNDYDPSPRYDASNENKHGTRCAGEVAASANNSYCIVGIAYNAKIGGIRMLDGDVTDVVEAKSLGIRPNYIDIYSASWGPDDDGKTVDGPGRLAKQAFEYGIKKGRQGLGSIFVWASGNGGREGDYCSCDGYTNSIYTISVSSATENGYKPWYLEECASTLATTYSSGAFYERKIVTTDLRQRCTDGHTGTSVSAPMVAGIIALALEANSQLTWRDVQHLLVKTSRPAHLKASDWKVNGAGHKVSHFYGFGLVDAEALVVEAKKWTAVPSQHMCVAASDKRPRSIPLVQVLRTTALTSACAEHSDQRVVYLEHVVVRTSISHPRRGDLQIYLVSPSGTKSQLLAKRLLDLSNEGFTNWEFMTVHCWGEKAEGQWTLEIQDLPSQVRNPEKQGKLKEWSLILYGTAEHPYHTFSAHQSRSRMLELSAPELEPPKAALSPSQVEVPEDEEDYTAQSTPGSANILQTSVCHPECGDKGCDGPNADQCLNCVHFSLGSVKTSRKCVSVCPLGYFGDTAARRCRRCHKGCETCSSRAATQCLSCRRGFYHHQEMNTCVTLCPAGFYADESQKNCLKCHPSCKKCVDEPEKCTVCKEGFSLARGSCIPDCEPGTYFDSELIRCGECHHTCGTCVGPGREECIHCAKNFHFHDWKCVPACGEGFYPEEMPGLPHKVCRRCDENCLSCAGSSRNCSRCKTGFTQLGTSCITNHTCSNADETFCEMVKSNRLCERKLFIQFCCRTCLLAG

LNCaP cells = conditions: MTT
[3] = Stability following incubation with DU145 cells; type: in vitro ADME, human; conditions: human, DU145 cells, Table 1, read-out: Stability (% remaining after 48 h)
Protocol: as §1
(§2) Consequently, the multi-Leu peptide was further modified by the addition of amino acid analogues and/or with pseudo peptide bounds which increase the protection of the modified peptides from peptidase and protease degradation. Gains in stability were also measured in vitro in tumoral prostatic human cells (DU145). Increase in stability of the variants was also measured in vivo (FIG. 4).

DU145 cells [4] = assay: Stability following incubation with DU145 cells; type: in vitro ADME, human; conditions: Table 2
Protocol: as §1, §2

Sequence of furin (P09958 108-794): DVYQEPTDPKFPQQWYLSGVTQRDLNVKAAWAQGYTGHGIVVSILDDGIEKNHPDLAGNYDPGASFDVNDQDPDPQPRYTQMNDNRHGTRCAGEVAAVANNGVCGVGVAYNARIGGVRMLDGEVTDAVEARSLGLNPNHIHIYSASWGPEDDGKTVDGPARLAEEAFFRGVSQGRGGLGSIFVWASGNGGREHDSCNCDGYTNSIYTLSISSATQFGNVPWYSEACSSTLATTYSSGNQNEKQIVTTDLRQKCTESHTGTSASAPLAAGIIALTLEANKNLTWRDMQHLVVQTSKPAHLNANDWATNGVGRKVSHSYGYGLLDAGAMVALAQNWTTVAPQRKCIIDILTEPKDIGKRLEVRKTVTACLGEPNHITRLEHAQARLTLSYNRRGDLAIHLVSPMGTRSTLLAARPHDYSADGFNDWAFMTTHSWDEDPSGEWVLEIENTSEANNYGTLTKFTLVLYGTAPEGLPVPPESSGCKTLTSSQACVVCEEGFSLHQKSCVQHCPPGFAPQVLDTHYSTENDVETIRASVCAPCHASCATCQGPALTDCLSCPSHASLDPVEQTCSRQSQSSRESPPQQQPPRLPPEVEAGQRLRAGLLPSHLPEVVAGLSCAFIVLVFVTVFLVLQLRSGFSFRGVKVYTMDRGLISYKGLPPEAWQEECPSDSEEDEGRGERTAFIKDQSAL

## CC(=O)NN(CC(=O)N[C@@H](CC(C)C)C(=O)N[C@@H](CC(C)C)C(=O)N[C@@H](CC(C)C)C(=O)N[C@@H](CCCNC(=N)N)C(=O)N[C@H](C(=O)N[C@@H](CCCCN)C(=O)NC/C=C/CNC(=N)N)C(C)C)CC(C)C [[Azaβ3L]^P8-ML-[ΔR-CO2]^P1, Ac-[Azaβ3L]LLLRVKR-[ΔR-COO]] (Ac-[X1]LLLRVK-X2)
[1]; Table 1
  half-life: 5.67 ± 0.07 h
[1]; Table 2
  half-life: 5.67 ± 0.07 h
DU145 cells [2]
  Anti-proliferative activity in DU145 cells (in words): IC50 lower than the IC50 of the multi-Leu control

## Ac-LLLLRVKR-NH2 [6: ML]
Fig. 4
  plasmatic half-life: 2,1±0,2h

## CC(=O)N[C@@H](CC(C)C)C(=O)N[C@@H](CC(C)C)C(=O)N[C@@H](CC(C)C)C(=O)N[C@@H](CC(C)C)C(=O)N[C@@H](CCCNC(=N)N)C(=O)N[C@H](C(=O)N[C@@H](CCCCN)C(=O)N[C@H](CCCNC(=N)N)C(N)=O)C(C)C [Ac-LLLLRVK-[DArg]-NH2] (Ac-LLLLRVK[dR]-NH2)
furin; read-out: Ki for furin
  Ki: 2600 nM
PACE4
  Ki: 1380 nM
LNCaP cells; FIG. 1D
  Anti-proliferative activity in LNCaP cells (in words): poorly
LNCaP cells; read-out: IC50 cellular proliferation LNCaP, FIG. 1B/1D
  IC50: 389000 ± 12000 nM
DU145 cells [2]
  Anti-proliferative activity in DU145 cells (in words): poorly
DU145 cells [2]; read-out: IC50 cellular proliferation DU145, FIG. 1B/1C
  IC50: 439000 ± 82000 nM

## CC(=O)N[C@@H](CC(C)C)C(=O)N[C@@H](CC(C)C)C(=O)N[C@@H](CC(C)C)C(=O)N[C@@H](CC(C)C)C(=O)N[C@@H](CCCNC(=N)N)C(=O)N[C@H](C(=O)N[C@@H](CCCCN)C(=O)NC/C=C/CNC(=N)N)C(C)C [ML-[ΔR-CO2]^P1, Ac-LLLLRVK-[ΔR-COO]] (Ac-LLLLRVK-X2)
furin; Table 3, read-out: Ki Furin
  Ki: 160 nM
PACE4
  Selectivity for PACE4 over furin (time more selective): 11.4
PACE4; Table 1
  Ki: 14 nM
PACE4; Table 3
  Selectivity index PACE4/furin: 11.4
[3]
  remaining at 48 h: 70%
DU145 cells [4]
  Stability (% remaining after 48 h): 70%

Source: patent US9809621B2, “Stable peptide-based PACE4 inhibitors” (SOCPRA SCIENCES SANTÉ ET HUMAINES S.E.C., priority 2011, dated 2017)
